# Reference: the supplement of paper PMC10307832
# Tests used:
# Assay in all cases: relative viability (nuclei count vs DMSO), 5 days (fraction); higher = more cells survive
# BEN = tested on: BEN
# Method in brief: (§1)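 Medians of duplicate plates are given as relative viability. That measure is the nuclei count in treated wells divided by the count in vehicle wells. Counts were taken on 4× images of lung cancer cell lines in 1536-well plates, 5 days after pin-tool dosing the day after seeding with one drug alone or a fixed anchor-drug dose plus five library-drug doses (not always all listed) in √10 steps.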
# NCI-H520 = tested on: NCI-H520
# Method in brief: as §1
# NCI-H2087 = tested on: NCI-H2087
# Method in brief: as §1
# NCI-H1355 = tested on: NCI-H1355
# Method in brief: as §1
# PC-14 = tested on: PC-14
# Method in brief: as §1
# NCI-H1666 = tested on: NCI-H1666
# Method in brief: as §1
# LXF-289 = tested on: LXF-289
# Method in brief: as §1
# CAL-12T = tested on: CAL-12T
# Method in brief: as §1
# NCI-H1993 = tested on: NCI-H1993
# Method in brief: as §1
# NCI-H1651 = tested on: NCI-H1651
# Method in brief: as §1
# LU99A = tested on: LU99A
# Method in brief: as §1
# NCI-H2085 = tested on: NCI-H2085
# Method in brief: as §1
# NCI-H2170 = tested on: NCI-H2170
# Method in brief: as §1
# SK-MES-1 = tested on: SK-MES-1
# Method in brief: as §1
# NCI-H1563 = tested on: NCI-H1563
# Method in brief: as §1
# NCI-H1437 = tested on: NCI-H1437
# Method in brief: as §1
# NCI-H460 = tested on: NCI-H460
# Method in brief: as §1
# NCI-H1792 = tested on: NCI-H1792
# Method in brief: as §1
# HCC-44 = tested on: HCC-44
# Method in brief: as §1
# COR-L23 = tested on: COR-L23
# Method in brief: as §1
# NCI-H1755 = tested on: NCI-H1755
# Method in brief: as §1
structure (smiles),measurement,setting,value
CCNC(=O)c1noc(-c2cc(C(C)C)c(O)cc2O)c1-c1ccc(CN2CCOCC2)cc1 [Luminespib] + Cc1nc(NC(=O)N2CCC[C@H]2C(N)=O)sc1-c1ccnc(C(C)(C)C(F)(F)F)c1 [Alpelisib] (partner 2 µM),relative viability,BEN; first compound 0.002 µM,1.1
same,relative viability,BEN; first compound 0.006325 µM,0.964
same,relative viability,BEN; first compound 0.02 µM,0.393
same,relative viability,BEN; first compound 0.06325 µM,0.709
same,relative viability,BEN; first compound 0.2 µM,0.224
same,relative viability,NCI-H520; first compound 0.002 µM,0.916
same,relative viability,NCI-H520; first compound 0.006325 µM,0.875
same,relative viability,NCI-H520; first compound 0.02 µM,1.01
same,relative viability,NCI-H520; first compound 0.06325 µM,0.131
same,relative viability,NCI-H520; first compound 0.2 µM,0.15
same,relative viability,NCI-H2087; first compound 0.002 µM,1.2
same,relative viability,NCI-H2087; first compound 0.006325 µM,0.907
same,relative viability,NCI-H2087; first compound 0.02 µM,1.3
same,relative viability,NCI-H2087; first compound 0.06325 µM,0.193
same,relative viability,NCI-H2087; first compound 0.2 µM,0.184
same,relative viability,NCI-H1355; first compound 0.002 µM,0.915
same,relative viability,NCI-H1355; first compound 0.006325 µM,0.913
same,relative viability,NCI-H1355; first compound 0.02 µM,0.403
same,relative viability,NCI-H1355; first compound 0.06325 µM,0.903
same,relative viability,NCI-H1355; first compound 0.2 µM,0.594
same,relative viability,PC-14; first compound 0.002 µM,0.942
same,relative viability,PC-14; first compound 0.006325 µM,0.882
same,relative viability,PC-14; first compound 0.02 µM,0.893
same,relative viability,PC-14; first compound 0.06325 µM,0.091
same,relative viability,PC-14; first compound 0.2 µM,0.0816
same,relative viability,NCI-H1666; first compound 0.002 µM,1
same,relative viability,NCI-H1666; first compound 0.006325 µM,1.01
same,relative viability,NCI-H1666; first compound 0.02 µM,0.985
same,relative viability,NCI-H1666; first compound 0.06325 µM,1.01
same,relative viability,NCI-H1666; first compound 0.2 µM,0.795
same,relative viability,LXF-289; first compound 0.002 µM,1.03
same,relative viability,LXF-289; first compound 0.006325 µM,0.97
same,relative viability,LXF-289; first compound 0.02 µM,1.09
same,relative viability,LXF-289; first compound 0.06325 µM,0.52
same,relative viability,LXF-289; first compound 0.2 µM,0.161
same,relative viability,CAL-12T; first compound 0.002 µM,1.21
same,relative viability,CAL-12T; first compound 0.006325 µM,1.25
same,relative viability,CAL-12T; first compound 0.02 µM,1.02
same,relative viability,CAL-12T; first compound 0.06325 µM,0.192
same,relative viability,CAL-12T; first compound 0.2 µM,0.0844
same,relative viability,NCI-H1993; first compound 0.002 µM,0.676
same,relative viability,NCI-H1993; first compound 0.006325 µM,0.74
same,relative viability,NCI-H1993; first compound 0.02 µM,0.588
same,relative viability,NCI-H1993; first compound 0.06325 µM,0.606
same,relative viability,NCI-H1993; first compound 0.2 µM,0.548
same,relative viability,NCI-H1651; first compound 0.002 µM,0.899
same,relative viability,NCI-H1651; first compound 0.006325 µM,0.854
same,relative viability,NCI-H1651; first compound 0.02 µM,0.881
same,relative viability,NCI-H1651; first compound 0.06325 µM,0.42
same,relative viability,NCI-H1651; first compound 0.2 µM,0.262
same,relative viability,LU99A; first compound 0.002 µM,0.534
same,relative viability,LU99A; first compound 0.006325 µM,0.526
same,relative viability,LU99A; first compound 0.02 µM,0.311
same,relative viability,LU99A; first compound 0.06325 µM,0.11
same,relative viability,LU99A; first compound 0.2 µM,0.0992
same,relative viability,NCI-H2085; first compound 0.002 µM,0.967
same,relative viability,NCI-H2085; first compound 0.006325 µM,0.989
same,relative viability,NCI-H2085; first compound 0.02 µM,0.937
same,relative viability,NCI-H2085; first compound 0.06325 µM,0.542
same,relative viability,NCI-H2085; first compound 0.2 µM,0.397
same,relative viability,NCI-H2170; first compound 0.002 µM,0.763
same,relative viability,NCI-H2170; first compound 0.006325 µM,0.79
same,relative viability,NCI-H2170; first compound 0.02 µM,0.526
same,relative viability,NCI-H2170; first compound 0.06325 µM,0.504
same,relative viability,NCI-H2170; first compound 0.2 µM,0.172
same,relative viability,SK-MES-1; first compound 0.002 µM,0.82
same,relative viability,SK-MES-1; first compound 0.006325 µM,0.858
same,relative viability,SK-MES-1; first compound 0.02 µM,0.593
same,relative viability,SK-MES-1; first compound 0.06325 µM,0.306
same,relative viability,SK-MES-1; first compound 0.2 µM,0.133
same,relative viability,NCI-H1563; first compound 0.002 µM,0.877
same,relative viability,NCI-H1563; first compound 0.006325 µM,0.942
same,relative viability,NCI-H1563; first compound 0.02 µM,0.95
same,relative viability,NCI-H1563; first compound 0.06325 µM,0.495
same,relative viability,NCI-H1563; first compound 0.2 µM,0.537
same,relative viability,NCI-H1437; first compound 0.002 µM,0.878
same,relative viability,NCI-H1437; first compound 0.006325 µM,0.919
same,relative viability,NCI-H1437; first compound 0.02 µM,1.16
same,relative viability,NCI-H1437; first compound 0.06325 µM,0.294
same,relative viability,NCI-H1437; first compound 0.2 µM,0.107
same,relative viability,NCI-H460; first compound 0.002 µM,0.508
same,relative viability,NCI-H460; first compound 0.006325 µM,0.447
same,relative viability,NCI-H460; first compound 0.02 µM,0.0191
same,relative viability,NCI-H460; first compound 0.06325 µM,0.0086
same,relative viability,NCI-H460; first compound 0.2 µM,0.0122
same,relative viability,NCI-H1792; first compound 0.002 µM,0.595
same,relative viability,NCI-H1792; first compound 0.006325 µM,0.621
same,relative viability,NCI-H1792; first compound 0.02 µM,0.355
same,relative viability,NCI-H1792; first compound 0.06325 µM,0.308
same,relative viability,NCI-H1792; first compound 0.2 µM,0.1
same,relative viability,HCC-44; first compound 0.002 µM,0.82
same,relative viability,HCC-44; first compound 0.006325 µM,0.886
same,relative viability,HCC-44; first compound 0.02 µM,0.851
same,relative viability,HCC-44; first compound 0.06325 µM,0.152
same,relative viability,HCC-44; first compound 0.2 µM,0.154
same,relative viability,COR-L23; first compound 0.002 µM,0.825
same,relative viability,COR-L23; first compound 0.006325 µM,0.685
same,relative viability,COR-L23; first compound 0.02 µM,0.714
same,relative viability,COR-L23; first compound 0.06325 µM,0.0624
same,relative viability,COR-L23; first compound 0.2 µM,0.0515
same,relative viability,NCI-H1755; first compound 0.002 µM,0.972
same,relative viability,NCI-H1755; first compound 0.006325 µM,0.887
same,relative viability,NCI-H1755; first compound 0.02 µM,0.823
same,relative viability,NCI-H1755; first compound 0.06325 µM,0.905
same,relative viability,NCI-H1755; first compound 0.2 µM,0.561
